Assay results: patent US9849178B2, “Combination of carotenoids and epi-lutein” (Gupron GmbH, priority 2009, dated 2017)
Read-outs that look alike come from different tables or passages of the source.

Columns and labels:
[1] = Epi-lutein study: plasma levels after oral administration (gavage) for 7 consecutive days; type: in vivo, Rats, Sprague-Dawley; details: for Cmax: day 7, rat plasma; for AUC / AUC(0-t): rat, plasma; for AUC: read-out: AUC0-τ; for AUC(0-t): read-out: AUC0-12 h; for AUC0-12 h (dose corrected) / AUC0-τ (dose corrected) / Cmax (dose corrected): dose corrected to 0.1 mg Lutein/kg BW
Method: [table] Study Design: Oral administration (gavage) of Treatment I for 7 consecutive days in 5 rats followed by a 14 days wash-out period and oral administration (gavage) of Treatment II for 7 consecutive days Blood Sampling: On day 7 of treatment prior to treatment and 15 min, 1, 3, 6, 9, 12 and 24 hours after treatment. About 400 μL blood were be transferred to Vacutainer tubes containing EDTA. Whole blood samples were centrifuged, as soon as possible from the designated time of collection, at 1200 g for approximately 10 minutes. All plasma samples (at least 200 μL) were be stored deep frozen at ≦−30° C., until shipping on dry ice. [table] Plasma Analysis: Lutein, Epilutein, Zeaxanthin and Oxidized metabolites

[2] = Pharmacokinetics of lutein and zeaxanthin with/without epi-lutein after intravenous administration; type: in vivo, wistar rats
Method: 14 days wash-out period before this study
Subject: 3 wistar rats each group
Feeding type: intravenous administration
Group A: 4 mg lutein/Kg body weight
Group B: (2 mg lutein+2 mg epi-lutein)/Kg body weight
Group C: 4 mg zeaxanthin/Kg body weight
Group D: (2 mg zeaxanthin 2 mg epi-lutein)/Kg body weight
Blood sampling: 15, 30, 60 minutes, 3 and 6 hours after feeding

[3] = Treatment II (mixture together with epi-lutein)

Structure (SMILES): CC1=C[C@@H](O)CC(C)(C)[C@H]1/C=C/C(C)=C/C=C/C(C)=C/C=C/C=C(C)/C=C/C=C(C)/C=C/C1=C(C)C[C@@H](O)CC1(C)C [Epi-Lutein, (3R,3′S,6′R)-lutein]
- AUC0-12 h ([1]; Treatment II (0.147 mg lutein + 0.135 mg epi-lutein/kg BW, oral gavage), day 7): 3.724 µg·h/mL
- Cmax ([1]; Treatment II (0.147 mg lutein + 0.135 mg epi-lutein/kg BW, oral gavage)): 0.428 µg/mL
- AUC0-τ ([1]; Treatment II (0.147 mg lutein + 0.135 mg epi-lutein/kg BW, oral gavage), day 7, τ 24 hours): 6.286 µg·h/mL

Structure (SMILES): CC1=C[C@H](O)CC(C)(C)[C@H]1/C=C/C(C)=C/C=C/C(C)=C/C=C/C=C(C)/C=C/C=C(C)/C=C/C1=C(C)C[C@@H](O)CC1(C)C [Lutein, (3R,3′R,6′R)-beta, epsilon-carotene-3,3′-diol]
- AUC(0-inf) ([2]; rat, 4 mg/kg, heading: AUC0-inf, wistar rats, intravenous, A 4 mg lutein/Kg, B 2 mg lutein+2 mg epi-lutein/Kg, C 4 mg zeaxanthin/Kg, D 2 mg zeaxanthin+2 mg epi-lutein/Kg, lutein (A,B) or zeaxanthin (C,D) in plasma): 21.3 µg·h/mL
- AUC(0-t) ([2]; rat, 4 mg/kg, heading: AUC0-t, wistar rats, intravenous, A 4 mg lutein/Kg, B 2 mg lutein+2 mg epi-lutein/Kg, C 4 mg zeaxanthin/Kg, D 2 mg zeaxanthin+2 mg epi-lutein/Kg, lutein (A,B) or zeaxanthin (C,D) in plasma): 11.7 µg·h/mL
- half-life ([2]; rat, 4 mg/kg, wistar rats, intravenous, A 4 mg lutein/Kg, B 2 mg lutein+2 mg epi-lutein/Kg, C 4 mg zeaxanthin/Kg, D 2 mg zeaxanthin+2 mg epi-lutein/Kg, lutein (A,B) or zeaxanthin (C,D) in plasma, read-out: T½): 5.08 h
- plasma half life after treatment with epi-lutein ([2]; wistar rats, intravenous, with vs without epi-lutein): substantially prolonged
- increase in the pharmacokinetic parameters of lutein, dose corrected ([1]; 0.1 mg lutein/kg BW mixed with approximately 0.1 mg epi-lutein/kg BW vs single compound, time interval 0-12 hours): about 100%
- Cmax ([1]; Sprague-Dawley, 0.282 mg/kg BW, Treatment I (0.282 mg lutein/kg BW, oral gavage), read-out: Cmax): 0.941 µg/mL
- AUC ([1]; Sprague-Dawley, 0.282 mg/kg BW, Treatment I (0.282 mg lutein/kg BW, oral gavage), day 7, τ 24 hours): 18.1 µg·h/mL
- AUC(0-t) ([1]; Sprague-Dawley, 0.282 mg/kg BW, Treatment I (0.282 mg lutein/kg BW, oral gavage), day 7): 9.78 µg·h/mL
- AUC ([1]; Sprague-Dawley, Treatment II (0.147 mg lutein + 0.135 mg epi-lutein/kg BW, oral gavage), day 7, τ 24 hours): 14.3 µg·h/mL
- AUC(0-t) ([1]; Sprague-Dawley, Treatment II (0.147 mg lutein + 0.135 mg epi-lutein/kg BW, oral gavage), day 7): 9.35 µg·h/mL
- Cmax ([1]; Sprague-Dawley, Treatment II (0.147 mg lutein + 0.135 mg epi-lutein/kg BW, oral gavage), read-out: Cmax): 0.939 µg/mL
- AUC0-12 h (dose corrected) ([1]; Treatment I (pure compound)): 3261 ng × h × ml^−1/0.1 mg Lut/kg B
- AUC0-τ (dose corrected) ([1]; Treatment I (pure compound)): 6050 ng × h × ml^−1/0.1 mg Lut/kg B
- Cmax (dose corrected) ([1]; Treatment I (pure compound)): 314 [ng/ml]/0.1 mg Lut/kg BW
- AUC0-12 h (dose corrected) [1, 3]: 6230 ng × h × ml^−1/0.1 mg Lut/kg B
- AUC0-τ (dose corrected) [1, 3]: 9560 ng × h × ml^−1/0.1 mg Lut/kg B
- Cmax (dose corrected) [1, 3]: 626 [ng/ml]/0.1 mg Lut/kg BW

Structure (SMILES): CC1=C(/C=C/C(C)=C/C=C/C(C)=C/C=C/C=C(C)/C=C/C=C(C)/C=C/C2=C(C)C[C@@H](O)CC2(C)C)C(C)(C)C[C@H](O)C1 [Zeaxanthin, (3R,3′R)-beta, beta carotene-3,3′-diol]
- T½ ([2]; rat, in vivo, iv): 5 h
- plasma half life after treatment with epi-lutein ([2]; rat, in vivo, iv): substantially prolonged
